One assay concerns EBC-1. In words: cell viability / antiproliferative activity (WST-8), EBC-1 cells. The format is cell-based, human. Particulars: EBC-1 lung cancer cells, 72 hours.
The test system of assay [1] is c-MET. In words: c-MET protein degradation (Simple Western), EBC-1 cells. In kind it is cell-based, human. Particulars: EBC-1 lung cancer cells, c-MET overexpressing; 48 hours. Here is the method:
(§1) In order to assess the resolution of the compound of the present invention for c-MET expressed in cells, cells were dispensed in a 12-well plate at a concentration of 2×10^5 cells/well, and then gastric cancer cell lines were treated with samples for 24 hours and lung cancer cell lines were treated for 48 hours. Cell lysates were collected using a scraper on ice, centrifuged at 4° C. 15,000 rpm for 30 min to obtain a protein-containing supernatant. Protein expression was then measured using the Simple Western Automated Western Blot System Abby instrument using 3 μg of protein for each sample. SDS and heat-induced denaturation proteins were separated by molecular weight, attached to capillary, reacted with anti-c-MET or anti-GAPDH antibodies, which are primary antibodies, and then reacted with HRP-conjugated secondary antibodies, and analyzed the protein expression signal with compass software. Protein expression was normalized based on the expression value of GAPDH, and protein development in each sample was measured as a percentage (%) based on 100% of samples treated with 0.1% DMSO carriers, and DC50 (concentration of a compound where 50% protein inhibition is achieved) was calculated from the change in protein expression amount due to compound treatment.

The test system of assay [2] is c-MET. Kind of assay: c-MET protein degradation (Simple Western), SNU-638 cells. The format is cell-based, human. Particulars: SNU-638 gastric cancer cells, c-MET overexpressing; 24 hours. As for the experimental part: as §1
In another assay the test system is SNU-638. Kind of assay: cell viability / antiproliferative activity (WST-8), SNU-638 cells. In kind it is cell-based, human. As to conditions: SNU-638 gastric cancer cells, 72 hours. (In general: Tetrazolium dyes change colour on reduction, which living cells bring about.)
The test system of assay [3] is c-MET. In words: c-MET protein degradation (Simple Western), Hs746T cells. In kind it is cell-based, human. As to conditions: Hs746T gastric cancer cells, c-MET exon 14 skipping mutant; 24 hours. Here is the method:
as §1

Assay [4] deals with c-MET. Kind of assay: c-MET protein degradation (Simple Western), MKN-45 cells. In kind it is cell-based, human. Particulars: MKN-45 gastric cancer cells, c-MET overexpressing; 24 hours. In a few lines:
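Cells at 2×10^5 cells/well exposed to compound for 24 h (gastric lines) or 48 h (lung lines). Lysates (3 μg protein) probed for c-MET by capillary Simple Western, normalized to GAPDH and expressed as % of 0.1% DMSO control. DC50 is the concentration giving 50% protein reduction.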

The test system of a further assay is MKN-45. In words: cell viability / antiproliferative activity (WST-8), MKN-45 cells. As to conditions: Homo sapiens; MKN-45 gastric cancer cells; 72 hours. The format is cell-based.

Results on 15 compounds are retold here after patent publication US20260306639A1, “DEGRADER FOR DECOMPOSING CMET PROTEIN, AND PHARMACEUTICAL COMPOSITION COMPRISING SAME” (INNOCURE THERAPEUTICS, INC., priority 2022, published 2026).

A value given as a limit tells only on which side of the number the result lay.

For the compound “3-((3-fluoro-4-(4-(2-(4-(4-(4-(2-(2-((S)-2-((5-(1-methyl-1H-pyrazole-4-yl)-1H-[1,2,3]triazolo[4,5-b]pyrazine-1-yl)methyl)morpholino)pyrimidine-5-yl)benzyl)piperazine-1-il)acetyl)piperazine-1-il)phenyl)amino)piperidine-2,6-dione [ICT-0001379]”, the concentration for half-maximal inhibition (IC50) in the assay with EBC-1 and with SNU-638 was less than 100 nM each time. For the same compound, the half-maximal degradation concentration (DC50) in the assay on c-MET [1] and with c-MET [2] was less than 100 nM throughout.

Consider `Cc1nn(C2CCC(=O)NC2=O)c(=O)c2ccc(N3CCN(c4ccc(NC(=O)CN5CCC(COc6cnc(-c7cccc(Cn8nc(-c9cccc(C#N)c9)ccc8=O)c7)nc6)CC5)cc4)CC3)cc12` (stereo not shown) [ICT-0001207], for which the DC50 in the assay on c-MET [3], in the assay on c-MET [1], in the assay on c-MET [2] and with c-MET [4] was less than 100 nM each time.

In the assay with c-MET [4], `Cc1nn(C2CCC(=O)NC2=O)c(=O)c2cc(N3CCN(C(=O)CN4CCC(COc5cnc(-c6cccc(Cn7nc(-c8cccc(C#N)c8)ccc7=O)c6)nc5)CC4)CC3)ccc12` (stereo not shown) [ICT-0001214, 3-(1-(3-(5-((1-(2-(4-(3-(2,6-dioxopiperidin-3-yl)-1-methyl-4-oxo-3,4-dihydropetalazine-6-yl)piperazine-1-il)acetyl)piperidine-4-il)methoxy)pyrimidine-2-yl)benzyl)6-oxo-1,6-dihydropyridazine-3-yl)benzonitrile] yielded a DC50 of less than 100 nM. The same compound showed an IC50 in the assay on MKN-45 of less than 100 nM.

For the compound `Cc1nn(C2CCC(=O)NC2=O)c(=O)c2cc(N3CCN(CCC(=O)N4CCC(COc5cnc(-c6cccc(Cn7nc(-c8cccc(C#N)c8)ccc7=O)c6)nc5)CC4)CC3)ccc12` (stereo not shown) [ICT-0001215], the half-inhibitory concentration (IC50) in the assay on EBC-1 (Homo sapiens), with SNU-638 (Homo sapiens) and in the assay with MKN-45 was less than 100 nM each time. Further, the half-maximal degradation concentration (DC50) with c-MET [1], in the assay on c-MET [2] and with c-MET [4] was less than 100 nM in each case.

In turn, `Cc1nn(C2CCC(=O)NC2=O)c(=O)c2cc(N3CCN(CCCC(=O)N4CCC(COc5cnc(-c6cccc(Cn7nc(-c8cccc(C#N)c8)ccc7=O)c6)nc5)CC4)CC3)ccc12` (stereo not shown) [ICT-0001216, 3-(1-(3-(5-((1-(4-(4-(3-(2,6-dioxopiperidin-3-yl)-1-methyl-4-oxo-3,4-dihydroptalazine-6-yl)piperazine-1-il)butanoyl)piperidine-4-il)methoxy)pyrimidine-2-yl)benzyl)6-oxo-1,6-dihydropyridazine-3-yl)benzonitrile] gave a DC50 with c-MET [4] of less than 100 nM. For the same compound, the IC50 with MKN-45 was less than 100 nM.

Compound `Cc1nn(C2CCC(=O)NC2=O)c(=O)c2ccc(N3CCN(CC4CCN(CC(=O)N5CCC(COc6cnc(-c7cccc(Cn8nc(-c9cccc(C#N)c9)ccc8=O)c7)nc6)CC5)CC4)CC3)cc12` (stereo not shown) [ICT-0001272] had a DC50 in the assay on c-MET [4] of less than 100 nM. In the assay with MKN-45, this compound came in with an IC50 of less than 100 nM.

For the compound `Cc1nn(C2CCC(=O)NC2=O)c(=O)c2ccc(N3CCN(CCN4CCC(COc5cnc(-c6cccc(Cn7nc(-c8cccc(C#N)c8)ccc7=O)c6)nc5)CC4)CC3)cc12` (stereo not shown) [ICT-0001277, 3-(1-{[3-(5-{[1-(2-{4-[2-(2,6-dioxopiperidin-3-yl)-4-methyl-1-oxo-1,2-dihydrophthalazine-6-yl]piperazine-1-yl}ethyl)piperidine-4-il]methoxy}pyrimidine-2-yl)phenyl]methyl}6-oxo-1,6-dihydropyridazine-3-yl)benzonitrile], the DC50 in the assay with c-MET [3], in the assay on c-MET [1], in the assay with c-MET [2] and with c-MET [4] was less than 100 nM throughout.

For the compound `N#Cc1cccc(-c2ccc(=O)n(Cc3cccc(-c4ncc(OCC5CCN(CCCCCc6ccc7c(=O)n(C8CCC(=O)NC8=O)ncc7c6)CC5)cn4)c3)n2)c1` (stereo not shown) [ICT-0001304], the IC50 in the assay with SNU-638 (Homo sapiens) is less than 100 nM.

Take `N#Cc1cccc(-c2ccc(=O)n(Cc3cccc(-c4ncc(OCC5CCN(CCOCCOCCOCC#Cc6cccc7c(=O)n(C8CCC(=O)NC8=O)ncc67)CC5)cn4)c3)n2)c1` (stereo not shown) [ICT-0001307]: the 50% inhibitory concentration (IC50) in the assay on SNU-638 (Homo sapiens) was less than 100 nM.

Compound `Cc1nn(C2CCC(=O)NC2=O)c(=O)c2ccc(N3CCN(C4CCN(CCN5CCC(COc6cnc(-c7cccc(Cn8nc(-c9cccc(C#N)c9)ccc8=O)c7)nc6)CC5)CC4)CC3)cc12` (stereo not shown) [ICT-0001317] yielded a half-maximal inhibitory concentration (IC50) with SNU-638 (Homo sapiens) of less than 100 nM.

`Cc1nn(C2CCC(=O)NC2=O)c(=O)c2cc(F)c(N3CCN(CC4CCN(CCN5CCC(COc6cnc(-c7cccc(Cn8nc(-c9cccc(C#N)c9)ccc8=O)c7)nc6)CC5)CC4)CC3)cc12` (stereo not shown) [ICT-0001318]: the IC50 with SNU-638 (Homo sapiens) is less than 100 nM.

For `Cc1nn(C2CCC(=O)NC2=O)c(=O)c2cc(N3CCN(CC4CCN(CCN5CCC(COc6cnc(-c7cccc(Cn8nc(-c9cccc(C#N)c9)ccc8=O)c7)nc6)CC5)CC4)CC3)ccc12` (stereo not shown) [ICT-0001321], in the assay with SNU-638 (Homo sapiens), the IC50 was less than 100 nM.

Take `N#Cc1cccc(-c2ccc(=O)n(Cc3cccc(-c4ncc(OCC5CCN(Cc6cn(C7CCC(=O)NC7=O)nn6)CC5)cn4)c3)n2)c1` (stereo not shown) [ICT-0001384, 3-{1-[(3-{5-[(1-{[1-(2,6-dioxopiperidine-3-yl)-1H-1,2,3-triazole-4-yl]methyl}piperidine-4-il)methoxy]pyrimidine-2-yl}phenyl)methyl]-6-oxo-1,6-dihydropyridazine-3-yl}benzonitrile]: the IC50 in the assay with EBC-1 (Homo sapiens) was less than 100 nM; in the assay with SNU-638 (Homo sapiens) it was 100 to 1000 nM. Also, the figures for the DC50 with c-MET [1] and with c-MET [2] were less than 100 nM and greater than 1000 nM, respectively.

In the case of `N#Cc1cccc(-c2ccc(=O)n(Cc3cccc(-c4ncc(N5CCN(CC6CCN(c7ccc(NC8CCC(=O)NC8=O)cc7F)CC6)CC5)cn4)c3)n2)c1` (stereo not shown) [ICT-0001402], the DC50 in the assay on c-MET [3], in the assay with c-MET [1] and in the assay with c-MET [2] was less than 100 nM each time.

In the case of `N#Cc1cccc(-c2ccc(=O)n(Cc3cccc(-c4ncc(OCC5CCN(CC(=O)N6CCN(c7ccc(NC8CCC(=O)NC8=O)c(F)c7)CC6)CC5)cn4)c3)n2)c1` (stereo not shown) [ICT-0001437, 3-(1-(3-(5-((1-(1-(2-(4-((2,6-dioxopiperidine-3-yl)amino)-3-fluorophenyl)piperazine-1-yl)-2-oxoethyl)piperidine-4-yl)methoxy)pyrimidine-2-yl)benzyl)6-oxo-1,6-dihydropyridazine-3-yl)benzonitrile], the IC50 in the assay on EBC-1 (Homo sapiens) and with SNU-638 (Homo sapiens) was less than 100 nM each time. Also, the half-maximal degradation concentration (DC50) in the assay on c-MET [1] and with c-MET [2] was less than 100 nM in each case.

The term IC50 denotes the concentration that gives 50% inhibition. In general, DC50 refers to the concentration giving 50% degradation. The low end stands for degradation at low concentration, the high end for degradation only at high concentration.
